{"source": "patent US20160199434A1", "about": "“COMPOSITIONS AND METHODS FOR MODULATING DNA METHYLATION” (OHIO STATE INNOVATION FOUNDATION, priority 2013, published 2016)", "key": {"DNMT-1": {"test_system": "DNMT-1", "assay": "DNMT-1 mRNA expression by RT-PCR in PyMT tumor cells", "type": "cell-based, mouse", "details": "for DNMT-1 mRNA expression: PyMT tumor cells, 24 hours, compared to DMSO (FIG. 1A)", "experimental": "(§1) FIGS. 1A-1E show DNA methyltransferase mRNA expression in vitro and in vivo. […] PyMT tumor cells were left untreated, were treated with DMSO, or were treated with AKB-6899 (10, 25, or 50 μM) for 24 hours. The cells were subjected to Trizol extraction to recover total RNA. cDNA was synthesized for RT-PCR of DNMT-1 and DNMT-3a mRNA expression. […] Human MDA-MB-231 tumor cells were left untreated, were treated with DMSO, or were treated with AKB-6899 (25 μM) for 24 hours. Total RNA was isolated for RT-PCR. FIG. 1C (DNMT-1), FIG. 1D (DNMT-3a), and FIG. 1E (DNMT-3b) compare the effect of AKB-6899 with the effect of 5-aza-2′deoxycytidine (5-AZA) as assessed by RT-PCR in human cervical tumors implanted in mice that were either untreated (UTX), treated with DMSO, treated with 5-AZA, or treated with AKB-6899 (17.5 mg/kg).\nBecause DSP is regulated by ER/PR expression, and because late-stage PyMT tumors lose ER/PR-positivity and heavily metastasize to the lymph nodes and lungs (Lin et al., 2003), the effects of AKB-6899 on more global events that regulate gene expression was evaluated. PyMT tumor cells in culture were treated with DMSO or AKB-6899. Methylation-specific PCR for CpG islands in the desmoplakin promoter were performed. […] Trypan Blue confirmed no cell death in AKB-6899 treated cells when compared to control cells. The experiment was repeated and RNA was isolated from the cells. RT-PCR was performed and the regulation of DNA methyltransferases (DNMTs) was evaluated. […] (FIG. 1A). The decrease in mRNA levels of DNMT-1 and DNMT-3a increased the mRNA level of DSP (FIG. 4A) and increased desmoplakin protein expression (FIG. 5A)."}, "DNMT-3a [1]": {"test_system": "DNMT-3a", "assay": "DNMT-3a transcription in H1703 lung cancer cells", "type": "cell-based, human", "details": "H1703 cells in vitro, dose-dependent (FIG. 10A)", "description": "In FIG. 10A, AKB-6899 inhibited DNMT-1, DNMT-3a, and DNMT-3b transcription in a dose-dependent manner in human squamous cell carcinoma lung cancer cells (H1703), in vitro. The DMSO-treated DNMT mRNAs are over 1.0, meaning the level of expression is higher than the housekeeping control gene, CAP1. In FIG. 10B, AKB-6899 inhibited DNMT-3a and DNMT-3b transcription in human adenocarcinoma lung cancer cells (A549). The DMSO-treated DNMT mRNAs are under 1.0, meaning the level of expression is lower than the housekeeping control gene, CAP1."}, "DNMT-3a [2]": {"test_system": "DNMT-3a", "assay": "DNMT-3a mRNA expression by RT-PCR in MDA-MB-231 tumor cells", "type": "cell-based, human", "details": "25 μM, 24 hours, compared to DMSO (FIG. 1B)", "experimental": "as §1\nTo determine whether the decrease in DNMT expression and the increase in DSP expression were relevant in human cancer, the level of desmoplakin expression in MDA-MB-231 human triple negative breast cancer cells was determined. […] (FIG. 3B)."}, "desmoplakin mRNA": {"test_system": "desmoplakin mRNA", "assay": "Desmoplakin mRNA expression in cultured PyMT cells", "type": "cell-based, mouse", "experimental": "(§2) FIGS. 3A-3E show the effect of AKB-6899 (25 μM) on methylation of the desmoplakin (DSP) gene promoter in PyMT breast cancer cells (3A), human MDA-MB-231 triple negative breast cancer cells (3B), human C8161.9 melanoma cells (3C), and human MCF-7 breast cancer cells (3D). In FIG. 3A, the DSP promoter was 100% unmethylated (AKB-6899) vs. 99.99% methylated (vehicle). In FIG. 3B, the DSP promoter was 99.62% unmethylated (AKB-6899) v. 99.89% (vehicle). In FIG. 3C, the DSP promoter was 99.90% unmethylated (AKB-6899) v. 42.04% (vehicle). In FIG. 3D, the DSP promoter was 92.48% unmethylated (AKB-6899) v. 98.48% (vehicle). In FIG. 3E, when compared to the vehicle (DMSO), treatment of PyMT cells with AKB-6899 increased DSP expression.\n(§3) FIGS. 4A-4B show desmoplakin mRNA expression in vitro and in vivo."}, "[3]": {"test_system": "MDA-MB-231 human breast cancer cells", "assay": "RNAseq of microRNAs and snoRNAs in MDA-MB-231 cancer cells", "type": "cell-based", "details": "MDA-MB-231 cells, compared to DMSO-treated cells", "experimental": "The expression of various microRNAs and snoRNAs was evaluated following administration of AKB-6899 to MDA-MB-231 human breast cancer cells. In these cancer cells, AKB-6899 increased expression of several microRNAs, some of which target methylation regulators such as the DNMTs. AKB-6899 also regulated about 20 snoRNAs, some of which are known to guide methylation. Finally, the analysis identified over sixty (60) RNA transcripts in the AKB-6899 treated cancer cells, which transcriptions are yet to annotated. The AKB-6899 treated breast cancer cells were compared to DMSO-treated cancer cells."}, "[4]": {"test_system": "desmoplakin (DSP) gene promoter", "assay": "Methylation of DSP promoter in C8161.9 melanoma cells", "type": "cell-based, human", "experimental": "as §2\nThe gene expression signatures from the tumors of PyMT breast tumor-bearing mice that were treated with either vehicle or AKB-6899 were evaluated. […] Methylation-specific PCR on the desmoplakin promoter was performed. The level of hypomethylation was near complete."}, "desmoplakin (DSP) mRNA": {"test_system": "desmoplakin (DSP) mRNA", "assay": "Desmoplakin mRNA expression in PyMT tumors of tumor-bearing mice", "type": "in vivo, mouse", "description": "as §3\nDesmoplakin (DSP) is the major protein component of the desmosome located in the inner membrane of epithelial cells where it binds desmosomal cadherins to maintain cell-to-cell adhesion. DSP is regulated by ER/PR expression (Maynadier et al. 2012; Ahmed et al., 1995; Pang et al., 2004). Clinically, expression of DSP is higher in normal mammary epithelium. Loss of DSP correlates with less differentiated breast tumors and increased lymph node involvement. […] Functional desmoplakin that is incorporated into the desmosome is not phosphorylated at serine 165/166. Phosphorylation at ser165/166 by protein kinase C (PKC) causes desmoplakin to disassemble from the desmosome. The loss of desmosome function and decreased adherence junctions are markers that can inform tumor staging, prognosis, and treatment planning as this transition eliminates therapeutic effectiveness and increases the likelihood of poor clinical outcome (Dusek et al., 2011). Further, loss of DSP is a marker in the Epithelial-to-Mesenchymal Transition (EMT) process as it binds to adherence proteins that also translocate to the nucleus and activate the Wnt/β-catenin pathway (Yang et al., 2012).\nThe gene expression signatures from the tumors of PyMT breast tumor-bearing mice that were treated with either vehicle or AKB-6899 were evaluated. […]"}}, "note": "Where “and” joins values, the source holds several entries; their conditions need not be identical. Identical values can stand only once. Entries after “also recorded” stand apart in the source; their conditions may differ.", "data": [{"smiles": "O=C(O)CNC(=O)c1ncc(-c2cccc(F)c2)cc1O", "note": "[AKB-6899, {[5-(3-Fluorophenyl)-3-hydroxypyridine-2-carbonyl]amino}acetic acid]", "values": [{"measurement": "DNMT-1 mRNA level", "setting": "DNMT-1; PyMT tumor cells in culture, concentration not given", "result": "significant decreases; also recorded: downregulated"}, {"measurement": "DNMT-1 mRNA expression", "setting": "DNMT-1; 10 μM", "result": "significantly inhibited"}, {"measurement": "DNMT-1 mRNA expression", "setting": "DNMT-1; 25 μM", "result": "significantly inhibited"}, {"measurement": "DNMT-1 mRNA expression", "setting": "DNMT-1; 50 μM", "result": "significantly inhibited"}, {"measurement": "DNMT-3a transcription", "setting": "DNMT-3a [1]", "result": "inhibited"}, {"measurement": "DNMT-3a mRNA expression", "setting": "DNMT-3a [2]", "result": "significantly decreased; also recorded: downregulated"}, {"measurement": "DSP expression", "setting": "desmoplakin mRNA; PyMT cells, compared to vehicle (DMSO) (FIG. 3E)", "result": "increased"}, {"measurement": "desmoplakin mRNA expression", "setting": "desmoplakin mRNA; cultured PyMT cells, 10 μM, compared to DMSO (FIG. 4A)", "result": "significantly increases"}, {"measurement": "expression of microRNAs", "setting": "[3]", "result": "increased"}, {"measurement": "DSP promoter unmethylated", "setting": "[4]; C8161.9 melanoma cells, 25 μM (FIG. 3C)", "result": 99.90, "unit": "%"}, {"measurement": "level of hypomethylation of desmoplakin promoter (in words)", "setting": "[4]; C8161.9 melanoma tumor cells", "result": "near complete"}, {"measurement": "increase in DSP mRNA expression", "setting": "desmoplakin (DSP) mRNA; PyMT breast tumor-bearing mice, 17.5 mg/kg, vs DMSO/vehicle animals, 17.5 mg/kg", "result": "~118 fold and 118.5 fold"}, {"measurement": "desmoplakin expression from PyMT tumors (in words)", "setting": "desmoplakin (DSP) mRNA; in vivo, compared to vehicle (FIG. 4B)", "result": "significantly increased"}]}]}
